Read-outs that look alike come from different tables or passages of the source.
How the values were obtained:
hNAMPT protein = hNAMPT protein (Homo sapiens (Human), UniProt P43490); experiment: NAMPT enzyme assay (TR-FRET/HTRF, BodiPY ligand, anti 6His-Tb); type: binding; details: for IC50: read-out: IC50; for inhibition at 1 µM: read-out: Percent Inhibition
Excerpt: As discussed above, the invention provides compounds that are useful as inhibitors of the enzyme NAMPT. The NAMPT inhibition of a compound of the invention can be measured using a variety of methods known in the art. For example, the ability of a compound of the invention to inhibit NAMPT enzyme activity can be measured using a homogeneous time resolved fluorescence (HTRF) assay using hNAMPT protein and anti 6His-Tb in buffer treated with a compound of the invention (or control e.g., DMSO) and BodiPY ligand. The TR-FRET signal can be measured using a high throughput microplate reader (e.g., Pherastar). Excitation can be carried out at 320 nm. The percent inhibition value at a single concentration of compound of the invention can be calculated relative to a control treated sample. A concentration response curve can be generated for each compound of the invention and the curve fitted to generate an IC50 value. […] Cat. No. […] To this solution is added test compounds or vehicle control (DMSO) and BodiPY ligand (structure below). The plate is shaken for 1-2 min, sealed and incubated for 1 hour at rt in the dark. The TR-FRET signal is measured using BMG Pherastar (Lanthascreen protocol on BMG Pherastar). Excitation was carried out at 320 nm, and the ratio of emission of BodiPY (520 nm) to terbium (486 nm) was determined. Concentration response curves are generated by calculating the excitation increase in test compound-treated samples relative to DMSO-treated controls. For the assay method described above, test compound percent inhibition values at a single concentration are calculated relative to control (DMSO) treated samples. Compound concentration response curves are fitted to generate IC50 values from those curves. One skilled in the art will appreciate that these values generated either as percentage inhibition at a single concentration or IC50 values are subject to experimental variation.

PC3 cells = experiment: PC3 growth inhibition (Cell-titer glo, 72 hours); type: cell-based; details: Homo sapiens, PC-3, PC3 cells, 72 hours, Cell-titer glo, read-out: Percent Inhibition (PC3 growth inhibition); for inhibition at 1.667 µM: compound concentration 1.667 μM; for inhibition at 1 µM: compound concentration 1 μM
Experimental: The ability of a compound of the invention to inhibit the growth of cells can be measured using a variety of methods known in the art. For example, the ability of a compound of the invention to inhibit the growth of PC3 cells can be measured. PC3 cells can be plated and incubated overnight under CO2. For each measurement, a compound of the invention (or vehicle e.g., DMSO) can be diluted with AIM serum free medium and added to the cell plate. The cell plate can then be incubated for 72 h under CO2. Cell-titer glo solution can be added and the plates can be incubated protected from light and the amount of luminescences can be measured. Concentration response curves can be generated by calculating the luminescence increase in test compound treated samples relative to DMSO-treated controls. Percentage remaining viability values at a single concentration can be measured. Growth inhibition (GI50) or cell viability (LD50) values can be determined from those curves.
Compounds of the invention were assayed to measure PC3 growth inhibition at a concentration of 1 μM or 1.667 μM (Table 3). To measure PC3 growth inhibition, PC3 cells that were maintained in PRMI1640 growth medium (Life Technologies; Cat. No. 11875) at 37° C. under 5% CO2 are trypsinized and diluted at a density of 8×10^4 cells/ml, 25 ul per well of cells and plated in 384-well black tissue culture plate. The cells are incubated overnight at 37° C. under 5% CO2. For each measurement, a test compounds or vehicle control (DMSO) are diluted with AIM serum free medium and added to the cell plate. Incubate for 72 hours at 37° C. under 5% CO2. 25 μl Cell-titer glo solution (Promega; Cat. No. G8462) is added and the cell plates are incubated for 10 minutes protected from light. The luminescence is measured. Concentration response curves are generated by calculating the luminescence increase in test compound-treated samples relative to DMSO-treated controls. Percentage remaining viability values at a single concentration, growth inhibition (GI50) or cell viability (LD50) values are determined from those curves. One skilled in the art will appreciate that these values are subject to experimental variation.

hNAMPT protein, sequence (P43490 whole entry): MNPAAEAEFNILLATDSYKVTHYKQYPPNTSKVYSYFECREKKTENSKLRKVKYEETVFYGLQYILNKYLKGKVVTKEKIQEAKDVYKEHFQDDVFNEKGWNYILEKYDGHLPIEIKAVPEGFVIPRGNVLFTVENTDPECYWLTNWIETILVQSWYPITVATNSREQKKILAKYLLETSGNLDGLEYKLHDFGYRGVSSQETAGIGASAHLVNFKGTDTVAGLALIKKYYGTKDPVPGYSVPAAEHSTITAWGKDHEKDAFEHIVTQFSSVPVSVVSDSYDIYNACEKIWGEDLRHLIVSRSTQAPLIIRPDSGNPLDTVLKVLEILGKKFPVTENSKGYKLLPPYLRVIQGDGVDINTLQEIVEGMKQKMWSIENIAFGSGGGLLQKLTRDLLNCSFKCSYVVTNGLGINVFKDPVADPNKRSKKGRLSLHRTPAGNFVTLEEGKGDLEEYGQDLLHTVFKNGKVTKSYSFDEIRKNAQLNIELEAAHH

Row | SMILES | IC50 (hNAMPT protein; NAMPT IC50 range class) [nM] | inhibition at 1 µM (hNAMPT protein; compound concentration 1 μM) [%] | inhibition at 1 µM (PC3 cells) [%] | further results
1 | O=C(NCCc1ncc[nH]1)c1ccc2nc(N3CCCCC3)c(-c3ccc(F)cc3)nc2c1 [Compound I-1, 3-(4-Fluorophenyl)-N-[2-(1H-imidazol-2-yl)ethyl]-2-(piperidin-1-yl)quinoxaline-6-carboxamide] | 500 to 1000 | 51 |  | inhibition at 1.667 µM (PC3 cells): 3%
2 | CC(=O)Nc1cccc(-c2nc3ccc(C(=O)NCCCn4ccnc4)cc3nc2-c2ccccc2)c1 [Compound I-2, 2-(3-acetamidophenyl)-N-[3-(1H-imidazol-1-yl)propyl]-3-phenylquinoxaline-6-carboxamide] | 100 to 500 | 77 | -7 | 
3 | CN1CC=C(c2nc3cc(C(=O)NCCCn4ccnc4)ccc3nc2-c2ccccc2)CC1 [Compound I-3, N-[3-(1H-imidazol-1-yl)propyl]-3-(1-methyl-1,2,3,6-tetrahydropyridin-4-yl)-2-phenylquinoxaline-6-carboxamide] | 2000 to 10000 | 9 | 39 | 
4 | Cn1cncc1CCNC(=O)c1ccc2nc(N3CCCCC3)c(-c3ccc(F)cc3)nc2c1 [Compound I-4, 3-(4-fluorophenyl)-N-[2-(1-methyl-1H-imidazol-5-yl)ethyl]-2-(piperidin-1-yl)quinoxaline-6-carboxamide] | < 100 | 93 |  | inhibition at 1.667 µM (PC3 cells): 2%
5 | O=C(NCCCn1ccnc1)c1ccc2nc(-c3ccncc3)c(-c3ccccc3)nc2c1 [Compound I-5, N-[3-(1H-imidazol-1-yl)propyl]-3-phenyl-2-(pyridin-4-yl)quinoxaline-6-carboxamide] | 500 to 1000 | 53 | -7 | 
6 | NC(=O)c1ccc(-c2nc3cc(C(=O)NCCCn4ccnc4)ccc3nc2-c2ccccc2)cc1 [Compound I-6, 3-(4-carbamoylphenyl)-N-[3-(1H-imidazol-1-yl)propyl]-2-phenylquinoxaline-6-carboxamide] | 2000 to 10000 | 20 | 91 | 
7 | O=C1CN(c2nc3ccc(C(=O)NCCCn4ccnc4)cc3nc2-c2ccccc2)CN1 [Compound I-7, N-[3-(1H-imidazol-1-yl)propyl]-2-(4-oxoimidazolidin-1-yl)-3-phenylquinoxaline-6-carboxamide] | 2000 to 10000 | 12 | 105 | 
8 | O=C(NCCCn1nnnc1S)c1ccc2nc(-c3ccc(F)cc3)c(-c3ccc(F)cc3)nc2c1 [Compound I-8, 2,3-bis(4-fluorophenyl)-N-[3-(5-sulfanyl-1H-tetrazol-1-yl)propyl]quinoxaline-6-carboxamide] | 1000 to 2000 | 43 | 103 | 
9 | Cc1nc(C)c(-c2nc3cc(C(=O)NCCCn4ccnc4)ccc3nc2-c2ccccc2)s1 [Compound I-9, 3-(2,4-dimethyl-1,3-thiazol-5-yl)-N-[3-(1H-imidazol-1-yl)propyl]-2-phenylquinoxaline-6-carboxamide] | 1000 to 2000 | 36 | 1 | 
10 | Cc1ccc(CCCNC(=O)c2ccc3nc(N4CCOCC4)c(-c4ccc(F)cc4)nc3c2)cn1 [Compound I-21, 3-(4-Fluorophenyl)-N-[3-(6-methylpyridin-3-yl)propyl]-2-(morpholin-4-yl)quinoxaline-6-carboxamide] | 500 to 1000 |  |  | inhibition at 1 µM (hNAMPT protein): 50%
11 | O=C(c1ccc2nc(-c3ccc(F)cc3)c(-c3ccc(F)cc3)nc2c1)N1CCC(c2cnccn2)C1 (stereo not shown) [Compound I-40, [2,3-bis(4-fluorophenyl)quinoxalin-6-yl][3-(pyrazin-2-yl)pyrrolidin-1-yl]methanone] | 2000 to 10000 | 33 |  | 
12 | O=C(NCCc1ncc[nH]1)c1ccc2nc(N3CCC(N4CCOCC4)CC3)c(-c3ccccc3)nc2c1 [Compound I-71, N-[2-(1H-imidazol-2-yl)ethyl]-2-[4-(morpholin-4-yl)piperidin-1-yl]-3-phenylquinoxaline-6-carboxamide] | 100 to 500 | 81 |  | 
13 | O=C(c1ccc2nc(-c3ccc(F)cc3)c(-c3ccc(F)cc3)nc2c1)N1CCC(c2ccncc2)C1 (stereo not shown) [Compound I-98, [2,3-bis(4-fluorophenyl)quinoxalin-6-yl][3-(pyridin-4-yl)pyrrolidin-1-yl]methanone] | 1000 to 2000 | 41 |  | 
14 | O=C(c1ccc2nc(-c3ccc(F)cc3)c(-c3ccc(F)cc3)nc2c1)N1CC(c2ccccn2)C1 [Compound I-110, [2,3-bis(4-fluorophenyl)quinoxalin-6-yl][3-(pyridin-2-yl)azetidin-1-yl]methanone] | 500 to 1000 | 66 |  | 
15 | O=C(c1ccc2nc(-c3ccc(F)cc3)c(-c3ccc(F)cc3)nc2c1)N1CCc2cnccc2C1 [Compound I-160, [2,3-bis(4-fluorophenyl)quinoxalin-6-yl](3,4-dihydro-2,6-naphthyridin-2(1H)-yl)methanone] | 2000 to 10000 | 45 |  | 
16 | Cc1ccc(CCCNC(=O)c2ccc3nc(N4CCCCC4)c(-c4ccc(F)cc4)nc3c2)cn1 [Compound I-185, 3-(4-fluorophenyl)-N-[3-(6-methylpyridin-3-yl)propyl]-2-(piperidin-1-yl)quinoxaline-6-carboxamide] | 500 to 1000 | 57 |  | 
17 | O=C(c1ccc2nc(-c3ccc(F)cc3)c(-c3ccc(F)cc3)nc2c1)N1CCC(c2ccncc2)CC1 [Compound I-186, [2,3-bis(4-fluorophenyl)quinoxalin-6-yl][4-(pyridin-4-yl)piperidin-1-yl]methanone] | 2000 to 10000 | 19 |  | 
18 | O=C(c1ccc2nc(-c3ccc(F)cc3)c(-c3ccc(F)cc3)nc2c1)N1CCCC1Cc1cccnc1 (stereo not shown) [Compound I-246, [2,3-bis(4-fluorophenyl)quinoxalin-6-yl][2-(pyridin-3-ylmethyl)pyrrolidin-1-yl]methanone] | 2000 to 10000 | 30 |  | 
19 | O=C(c1ccc2nc(-c3ccc(F)cc3)c(-c3ccc(F)cc3)nc2c1)N1CC(n2cccn2)C1 [Compound I-249, [2,3-bis(4-fluorophenyl)quinoxalin-6-yl][3-(1H-pyrazol-1-yl)azetidin-1-yl]methanone] | 1000 to 2000 | 45 |  | 
20 | O=C(NCCCn1ccnc1)c1ccc2nc(-c3ccccc3Cl)c(-c3ccccc3Cl)nc2c1 [Compound I-260, 2,3-bis(2-chlorophenyl)-N-[3-(1H-imidazol-1-yl)propyl]quinoxaline-6-carboxamide] | 2000 to 10000 | 19 |  | 
21 | O=C(NCCc1c[nH]c2ccccc12)c1ccc2nc(-c3ccc(F)cc3)c(-c3ccc(F)cc3)nc2c1 [Compound I-293, 2,3-bis(4-fluorophenyl)-N-[2-(1H-indol-3-yl)ethyl]quinoxaline-6-carboxamide] | 2000 to 10000 | 26 |  | 
22 | O=C(c1ccc2nc(-c3ccc(F)cc3)c(-c3ccc(F)cc3)nc2c1)N1CCC(c2ncccn2)C1 (stereo not shown) [Compound I-294, [2,3-bis(4-fluorophenyl)quinoxalin-6-yl][3-(pyrimidin-2-yl)pyrrolidin-1-yl]methanone] | 2000 to 10000 | 22 |  | 
23 | COc1cccc(-c2nc3cc(C(=O)NCCCc4ncc[nH]4)ccc3nc2-c2ccc(F)cc2)n1 [Compound I-495, 2-(4-fluorophenyl)-N-[3-(1H-imidazol-2-yl)propyl]-3-(6-methoxypyridin-2-yl)quinoxaline-6-carboxamide] |  |  |  | inhibition at 1 µM (hNAMPT protein; NAMPT inhibition at compound concentration 1 μM): 96%; IC50 (hNAMPT protein; NAMPT inhibition, IC50 range class): < 100 nM
